Like-named read-outs stand apart in the source and are kept apart here.
Columns and labels:
Fos protein = assay: Formalin-induced spinal cord Fos protein expression; assay type: in vivo, Sprague-Dawley rats
FAAH [1] = test system: FAAH
mice = assay: Acetic acid-induced writhing; assay type: in vivo, Swiss Webster mice
[2] = Temporal tissue distribution of URB937 in liver, brain and serum; assay type: in vivo, Swiss Webster mice; conditions: 1 mg-kg^−1, i.p., mice
[3] = test system: human epithelial TC7 cells; assay: Permeability and efflux ratio through polarized TC7 monolayers; assay type: in vitro ADME; conditions: mean of 2 independent experiments
[4] = Drug distribution coefficient n-octanol / buffer pH 7.4; assay type: physicochemical; conditions: n-octanol / aqueous buffer pH 7.4, 25±1°C, mean±s.e.m, n = 3
FAAH [5] = target: T1, FAAH (Mus musculus, UniProt O08914); assay type: in vivo, Swiss Webster mice
T1 sequence (O08914 1-579): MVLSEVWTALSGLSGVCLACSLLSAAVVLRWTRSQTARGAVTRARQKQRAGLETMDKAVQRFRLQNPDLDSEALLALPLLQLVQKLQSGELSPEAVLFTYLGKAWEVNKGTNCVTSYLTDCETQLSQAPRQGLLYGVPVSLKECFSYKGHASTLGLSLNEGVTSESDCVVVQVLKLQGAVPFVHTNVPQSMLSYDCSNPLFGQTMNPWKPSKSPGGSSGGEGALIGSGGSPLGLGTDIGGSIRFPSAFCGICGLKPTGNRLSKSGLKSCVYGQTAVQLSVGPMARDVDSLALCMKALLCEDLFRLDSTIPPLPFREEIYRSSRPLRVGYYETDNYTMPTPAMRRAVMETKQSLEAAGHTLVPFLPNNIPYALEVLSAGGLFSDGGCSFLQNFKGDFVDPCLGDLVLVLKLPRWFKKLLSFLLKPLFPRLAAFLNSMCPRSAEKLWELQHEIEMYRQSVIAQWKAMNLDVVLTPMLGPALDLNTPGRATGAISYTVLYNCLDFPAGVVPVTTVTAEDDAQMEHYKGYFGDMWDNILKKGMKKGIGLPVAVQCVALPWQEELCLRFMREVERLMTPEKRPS

[6] = ex vivo 1 h after injection, 1 mg-kg^−1 i.p., Swiss Webster mice, n = 3
[7] = s.c., mice, 1 h after injection

Cc1c(C(=O)NN2CCCCC2)nn(-c2ccc(Cl)cc2Cl)c1-c1ccc(Cl)cc1 [rimonabant]
Effect on Fos levels when administered without URB937 (Fos protein; 2 mg-kg^−1, i.p., rats): did not significantly alter Fos levels | Effect of antagonist on URB937 suppression of Fos expression (Fos protein; rimonabant 2 mg-kg^−1, i.p., with URB937): prevented

NC(=O)c1cccc(-c2cccc(OC(=O)NC3CCCCC3)c2)c1 [Compound 1a, cyclohexylcarbamic acid 3′-carbamoylbiphenyl-3-yl ester, reference compound]
Effect on brain FAAH activity (FAAH [1]; in vivo, ip): markedly reduced

COc1ccc2c(c1)c(CC(=O)O)c(C)n2C(=O)c1ccc(Cl)cc1 [indomethacin]
Effect on acetic acid-induced writhing relative to URB937 (mice; 1 mg-kg^−1, s.c., 1 h before test): comparable in efficacy

COc1ccc(C(=O)c2c(C)n(CCN3CCOCC3)c3cc(I)ccc23)cc1 [AM630]
Effect of antagonist on the antinociceptive effect of URB937 (writhing) (mice; antagonist 1 mg-kg^−1, s.c., with URB937 1 mg-kg^−1 s.c.): ineffective

NC(=O)c1cccc(-c2cc(OC(=O)NC3CCCCC3)ccc2O)c1 [Compound 1b]
Distribution in blood and liver after systemic administration [2]: distributed rapidly in blood and liver | Presence in brain tissue after systemic administration [2]: undetectable | % recovery A–B [3]: 83% | % recovery B-A [3]: 95% | permeability B-A [3]: 37.1 ×10⁻⁶ cm/s | distribution coefficient, LogDoct,pH7.4 [4]: 3.03±0.01 | Effect on brain FAAH activity (FAAH [1]; 25 mg-kg^−1, i.p.): no effect | Time course of peripheral FAAH inhibition in vivo (FAAH [5]; Supplementary Figure 1): rapidly and lastingly | FAAH Inhibition in brain (FAAH [5]; [6]): −3.0 ± 8.0% | FAAH Inhibition in liver (FAAH [5]; [6]): 91.7 ± 0.7% | ED50 for FAAH inhibition in brain (FAAH [5]; [7]): 40 mg/kg | ED50 for FAAH inhibition in liver (FAAH [5]; [7]): 0.2 mg/kg

Reference: PMC3260554 (Nature Neuroscience, 2010)
